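Where inhibition never reached the appropriate level, the endpoint shown equals the highest concentration tested. Otherwise, values were interpolated linearly from a five-concentration, 48-hour dose response in 96-well plates. Here, GI50 denotes the concentration required for 50% inhibition of growth. TGI is the concentration that stops growth completely.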
Assays:
Assay in all cases: growth of human tumour cells (NCI), 48 h
[1] = system: SK-MEL-5 melanoma
[2] = system: SF-295 CNS
[3] = system: SW-620 colon
[4] = system: OVCAR-8 ovarian
[5] = system: NCI/ADR-RES ovarian
[6] = system: UACC-257 melanoma
[7] = system: NCI-H23 lung
[8] = system: HOP-62 NSCLC
[9] = system: MOLT-4 leukemia
[10] = system: HCC-2998 colon

| Structure (SMILES) | TGI [1] | TGI [2] | TGI [3] | TGI [4] | TGI [5] | TGI [6] | TGI [7] | TGI [8] | TGI [9] | TGI [10] | GI50 [1] | GI50 [2] | GI50 [3] | GI50 [4] | GI50 [5] | GI50 [6] | GI50 [7] | GI50 [8] | GI50 [9] | GI50 [10] |
| --- | --- | --- | --- | --- | --- | --- | --- | --- | --- | --- | --- | --- | --- | --- | --- | --- | --- | --- | --- | --- |
| COC(=O)c1ccccc1CC1Cc2c(C)ccc(C)c2C1=O (stereo not given) | 34 µM | > 100 µM | > 100 µM | > 100 µM | 70.9 µM | 48.2 µM | 55.2 µM | > 100 µM | 45.6 µM | > 100 µM |  |  |  |  |  |  |  |  |  |  |
| c1ccc(C(Oc2noc3ccccc23)c2ccccc2)cc1 | 39.6 µM | > 100 µM | > 100 µM | > 100 µM | > 100 µM | 99.6 µM | > 100 µM | > 100 µM | 71.7 µM | 44.7 µM |  |  |  |  |  |  |  |  |  |  |
| COc1ccc(OC)c2c(C(C)=O)cccc12 | > 100 µM | > 100 µM | > 100 µM | > 100 µM | > 100 µM | > 100 µM | > 100 µM | > 100 µM | > 100 µM | > 100 µM |  |  |  |  |  |  |  |  |  |  |
| CCOC(=O)C(C)c1nc2cc(F)c(F)cc2[nH]c1=O (stereo not given) | > 100 µM | > 100 µM | > 100 µM | > 100 µM | > 100 µM | > 100 µM | > 100 µM | > 100 µM | > 100 µM | > 100 µM |  |  |  |  |  |  |  |  |  |  |
| ClC1=NSSC1(Cl)Cl | 28.8 µM | > 100 µM | 82.3 µM | 87.2 µM | > 100 µM | > 100 µM | > 100 µM | > 100 µM | 53.4 µM | > 100 µM |  |  |  |  |  |  |  |  |  |  |
| CC(C)=CCC[C@@H](C)C1=C(O)C(N[C@H](C)c2ccccc2)=C(C)C(=O)C1=O | 13.1 µM | 16.9 µM | > 45.2 µM | > 24.1 µM | 4.23 µM | 53.4 µM | 34.2 µM | 20 µM | > 30.1 µM | 31.3 µM |  |  |  |  |  |  |  |  |  |  |
| Clc1ccc(-c2cn3c(nc4ccccc43)c(-c3ccccc3)n2)cc1 | 46.5 µM | 28.3 µM | > 100 µM | 33 µM | > 100 µM | > 100 µM | 64.2 µM | 24.6 µM | > 100 µM | > 100 µM |  |  |  |  |  |  |  |  |  |  |
| Cc1sc(/N=C/C2=C(O)CC(C)(C)CC2=O)nc1-c1ccccc1 | > 100 µM | > 100 µM | > 100 µM | > 100 µM | > 100 µM | > 100 µM | > 100 µM | > 100 µM | > 100 µM | > 100 µM |  |  |  |  |  |  |  |  |  |  |
| COc1cc2c(c(OC)c1OC)C(=O)c1c(O)cc(C)c(OC)c1C2=O | > 100 µM | > 100 µM | > 100 µM | > 100 µM | > 100 µM | > 100 µM | > 100 µM | > 100 µM | > 100 µM | > 100 µM |  |  |  |  |  |  |  |  |  |  |
| Cc1c2cc[n+](Cc3ccc(I)cc3)cc2c(C)c2c1[nH]c1ccccc12 | 1.33 µM | > 9.98 µM | > 25 µM | 11.8 µM | > 25 µM | 2.09 µM | 9.13 µM | > 21.7 µM | 1.65 µM | 5.25 µM |  |  |  |  |  |  |  |  |  |  |
| CN(CCN)[C@H](CSSC[C@@H](c1ccccc1O)N(C)CCN)c1ccccc1O | 24.4 µM | 20.4 µM | > 57.3 µM | 47.6 µM | 23.5 µM | 32.8 µM | 28.5 µM | 28.6 µM | 23 µM | 25.6 µM |  |  |  |  |  |  |  |  |  |  |
| COC(=O)c1ccccc1C1CN=NC12Cc1ccc(C)cc1C2=O (stereo not given) | > 100 µM | > 100 µM | > 100 µM | > 100 µM | > 100 µM | > 100 µM | > 100 µM | > 100 µM | > 100 µM | > 100 µM |  |  |  |  |  |  |  |  |  |  |
| CN(C(=O)Cc1ccccc1)n1cn[n+](CC(=O)OC(C)(C)C)c1 | > 10 µM | > 10 µM | > 10 µM | > 10 µM | > 10 µM | > 10 µM | > 10 µM | > 10 µM | > 10 µM | > 10 µM |  |  |  |  |  |  |  |  |  |  |
| Cc1ccc(C(=O)N/N=C(\N=Nc2ccc([N+](=O)[O-])cc2)c2ccc(N(CCC#N)CCC#N)cc2C)cc1 | > 100 µM | > 100 µM | > 100 µM | > 100 µM | > 100 µM | > 100 µM | > 100 µM | > 100 µM | > 100 µM | > 100 µM |  |  |  |  |  |  |  |  |  |  |
| COC(=O)/C=C(C)/C=C\COC1CCCCO1 (stereo not given) | > 100 µM | > 100 µM | > 100 µM | > 100 µM | > 100 µM | > 100 µM | > 100 µM | > 100 µM | > 100 µM | > 100 µM |  |  |  |  |  |  |  |  |  |  |
| Nc1nc(Cl)c(CO)c(NCC2(CO)CCC2)n1 | > 100 µM | > 100 µM | > 100 µM | > 100 µM | > 100 µM | > 100 µM | > 100 µM | > 100 µM | > 100 µM | > 100 µM |  |  |  |  |  |  |  |  |  |  |
| O=C(Nc1cccc(-n2ccc3c(NC(=O)c4ccccc4)ncnc32)c1)Nc1ccc(Cl)c(C(F)(F)F)c1 | 8.16 µM | 7.24 µM | 10.1 µM | 6.67 µM | 32 µM | 8.43 µM | 18.7 µM | 11.8 µM | 12.7 µM | 14.9 µM | 2.2 µM | 1.43 µM | 3.26 µM | 1.95 µM | 3.73 µM | 2.67 µM | 1.97 µM | 5.62 µM | 1.77 µM | 4.2 µM |
| O=C1c2cc3c(cc2NC(c2ccccc2F)C1O)OCO3 (stereo not given) | > 100 µM | 43.6 µM | > 100 µM | 71.9 µM | > 64.7 µM | > 100 µM | > 91.5 µM | > 66.1 µM | > 83.9 µM | > 75.1 µM |  |  |  |  |  |  |  |  |  |  |
| CC(=O)O[C@H]1[C@@H](N2CCOCC2)C[C@H]2[C@@H]3CC=C4C[C@@H](N5CCCC5)CC[C@]4(C)[C@H]3CC[C@@]21C | > 100 µM | > 100 µM | > 100 µM | > 100 µM | > 100 µM | > 100 µM | > 100 µM | > 100 µM | > 100 µM | > 100 µM |  |  |  |  |  |  |  |  |  |  |
| CC(=O)OCC1OC(OCCCOP(=O)(OCCC#N)OCC2OC(n3cnc4c(N)ncnc43)C(OC(=O)c3ccccc3)C2OC(=O)c2ccccc2)C(OC(C)=O)C(OC(C)=O)C1OC(C)=O (stereo not given) | > 100 µM | > 100 µM | > 100 µM | > 100 µM | > 100 µM | > 100 µM | > 100 µM | > 100 µM | > 100 µM | > 100 µM |  |  |  |  |  |  |  |  |  |  |
| CC(=O)N[C@@H](Cc1ccc(O)cn1)C(=O)NCc1ccc(Cl)cc1 | > 100 µM | > 100 µM | > 100 µM | > 100 µM | > 100 µM | > 100 µM | > 100 µM | > 100 µM | > 100 µM | > 100 µM |  |  |  |  |  |  |  |  |  |  |
| Cc1nn2c(=O)c([N+](=O)[O-])c(/C=C/c3ccc(F)cc3)nc2s1 | 15.8 µM | 22.8 µM | 19.3 µM | 16 µM | 25.1 µM | 22.3 µM | 23.5 µM | 22.9 µM | 28.6 µM | 16.4 µM |  |  |  |  |  |  |  |  |  |  |
| O=c1cc(NNc2cccc3ccccc23)[nH]c(=O)[nH]1 | 29.7 µM | 31.4 µM | 40 µM | 36.8 µM | 40.9 µM | 29.4 µM | 28.9 µM | 30.9 µM | 56.8 µM | 35.6 µM |  |  |  |  |  |  |  |  |  |  |
| COc1cc(/C=C(\C)[N+](=O)[O-])cc(OC)c1 | 31.7 µM | 53.6 µM | 9.16 µM | 29.7 µM | 39.8 µM | 31 µM | 37.1 µM | 33.7 µM | 6.16 µM | 55.5 µM |  |  |  |  |  |  |  |  |  |  |
| NCCCN(CCCCN(CCCN)CCCc1ccccc1)CCCc1ccccc1 | 3.36 µM | 3.16 µM | 10.6 µM | 27 µM | 43.1 µM | 3.45 µM | 17.4 µM | 25.4 µM | 5.21 µM | 2.99 µM |  |  |  |  |  |  |  |  |  |  |
| Cc1nc2ccc(NCCN(C)C)c3c(=O)c4ccccc4n1c23 | 8.95 µM | 14.2 µM | 9.15 µM | 10.1 µM | 6.83 µM | 17.6 µM | 9.94 µM | 19.1 µM | 22.2 µM | 16.7 µM |  |  |  |  |  |  |  |  |  |  |
| COC(=O)CN1CCN(c2cccc3c2CCCC3)CC1 | 60 µM | > 100 µM | > 100 µM | > 100 µM | > 100 µM | > 100 µM | 48.7 µM | > 100 µM | > 100 µM | 85.3 µM |  |  |  |  |  |  |  |  |  |  |
| O=C(C[N+]12CN3CN(CN(C3)C1)C2)c1ccc(-c2ccccc2)cc1 | 30.4 µM | 43.6 µM | 30 µM | > 100 µM | 89.4 µM | 29.8 µM | 53.5 µM | 55.4 µM | 42.9 µM | 28.9 µM |  |  |  |  |  |  |  |  |  |  |
| CC(=O)c1csc2c1C(=O)c1ccccc1C2=O | 0.376 µM | 3 µM | 5.4 µM | 7.11 µM | 16.6 µM | 2.92 µM | 3.59 µM | 4.36 µM | > 66.7 µM | 3.2 µM |  |  |  |  |  |  |  |  |  |  |

From PubChem BioAssay (NCI)
